Data from ChEMBL document CHEMBL1128191, “1-(1-[4-[(N-acetyl-4-piperidinyl)oxy]-2-methoxybenzoyl]piperidin-4-yl)-4H-3,1-benzoxazin-2(1H)-one (L-371,257): a new, orally bioavailable, non-peptide oxytocin antagonist” (J Med Chem, 1995).

Experiments:
Oxytocin receptor [1] = target: T1, Oxytocin receptor (Homo sapiens, UniProt P30559); experiment: Binding affinity was evaluated by measuring the displacement of [3H]OT (oxytocin) from specific binding sites in uterine tissue obtained from human
T1 sequence (P30559 whole entry): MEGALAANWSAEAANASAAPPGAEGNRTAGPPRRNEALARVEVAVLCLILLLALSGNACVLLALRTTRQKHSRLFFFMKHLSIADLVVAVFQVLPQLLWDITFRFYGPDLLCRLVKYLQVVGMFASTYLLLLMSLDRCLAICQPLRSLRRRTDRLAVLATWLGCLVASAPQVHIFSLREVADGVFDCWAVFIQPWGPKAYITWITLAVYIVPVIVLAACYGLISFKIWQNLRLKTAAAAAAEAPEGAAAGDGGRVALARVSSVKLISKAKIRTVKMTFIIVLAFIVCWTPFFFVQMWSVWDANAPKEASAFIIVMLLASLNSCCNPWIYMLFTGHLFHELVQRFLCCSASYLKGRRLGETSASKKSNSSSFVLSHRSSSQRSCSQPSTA

Oxytocin receptor [2] = target: T2, Oxytocin receptor (Rattus norvegicus, UniProt P70536); experiment: Binding affinity was evaluated by measuring the displacement of [3H]-OT (oxytocin) from specific binding sites in uterine tissue obtained from rats
T2 sequence (P70536 whole entry): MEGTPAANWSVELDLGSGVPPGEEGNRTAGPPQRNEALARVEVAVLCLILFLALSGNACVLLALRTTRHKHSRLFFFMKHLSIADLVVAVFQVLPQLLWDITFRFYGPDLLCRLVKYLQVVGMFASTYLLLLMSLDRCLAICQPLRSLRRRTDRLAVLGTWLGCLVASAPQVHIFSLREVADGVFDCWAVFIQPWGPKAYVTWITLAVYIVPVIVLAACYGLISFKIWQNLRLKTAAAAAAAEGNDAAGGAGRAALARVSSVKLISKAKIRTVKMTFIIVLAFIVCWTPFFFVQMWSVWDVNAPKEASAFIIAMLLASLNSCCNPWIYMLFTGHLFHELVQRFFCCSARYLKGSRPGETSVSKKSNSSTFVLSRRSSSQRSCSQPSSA

Vasopressin V2 receptor [3] = target: T3, Vasopressin V2 receptor (Rattus norvegicus, UniProt Q00788); experiment: Binding affinity was evaluated by measuring the displacement of [3H]-AVP (arginine vasopressin) from specific binding sites in kidney medulla obtained from rats; assay type: tissue-based
Vasopressin V1a receptor [4] = target: T4, Vasopressin V1a receptor (Rattus norvegicus, UniProt P30560); experiment: Binding affinity was evaluated by measuring the displacement of [3H]AVP (arginine vasopressin) from specific binding sites in rat liver
Vasopressin V1a receptor [5] = target: T5, Vasopressin V1a receptor (Homo sapiens, UniProt P37288); experiment: Binding affinity was evaluated by measuring the displacement of [3H]AVP (arginine vasopressin) from specific binding sites in human platelets
Oxytocin receptor [6] = target: T1, Oxytocin receptor; experiment: Binding affinity was evaluated by measuring the displacement of [3H]-OT (oxytocin) from specific binding sites in uterine tissue obtained from human.
Vasopressin V1a receptor [7] = target: T4, Vasopressin V1a receptor; experiment: Binding affinity was evaluated by measuring the displacement of [3H]AVP (arginine vasopressin) from specific binding sites in rat liver.
Vasopressin V2 receptor [8] = target: T3, Vasopressin V2 receptor; experiment: Binding affinity was evaluated by measuring the displacement of [3H]AVP (arginine vasopressin) from specific binding sites in kidney medulla obtained from rats.; assay type: tissue-based
Vasopressin V1a receptor [9] = target: T5, Vasopressin V1a receptor; experiment: Binding affinity was evaluated by measuring the displacement of [3H]AVP (arginine vasopressin) from specific binding sites in human platelets.
Vasopressin V2 receptor [10] = target: T6, Vasopressin V2 receptor (Homo sapiens, UniProt P30518); experiment: Binding affinity was evaluated by measuring the displacement of [3H]AVP (arginine vasopressin) from specific binding sites in kidney medulla obtained from early postmortem human donors.; assay type: tissue-based
Vasopressin V2 receptor [11] = target: T6, Vasopressin V2 receptor; experiment: Binding affinity was evaluated by measuring the displacement of [3H]-AVP (arginine vasopressin) from specific binding sites in kidney medulla obtained from early postmortem human donors; assay type: tissue-based

T5 sequence (P37288 whole entry): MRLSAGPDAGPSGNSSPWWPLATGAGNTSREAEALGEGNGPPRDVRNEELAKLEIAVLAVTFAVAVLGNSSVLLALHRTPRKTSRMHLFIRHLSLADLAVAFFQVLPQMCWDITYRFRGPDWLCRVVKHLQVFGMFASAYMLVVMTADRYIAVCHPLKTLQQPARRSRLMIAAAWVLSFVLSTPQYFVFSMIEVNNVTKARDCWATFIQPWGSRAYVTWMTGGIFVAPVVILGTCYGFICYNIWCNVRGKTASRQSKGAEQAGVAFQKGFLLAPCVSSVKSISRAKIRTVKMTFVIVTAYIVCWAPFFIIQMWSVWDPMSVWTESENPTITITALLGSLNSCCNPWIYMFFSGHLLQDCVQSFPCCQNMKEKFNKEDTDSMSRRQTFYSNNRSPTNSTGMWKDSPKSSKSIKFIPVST
T4 sequence (P30560 whole entry): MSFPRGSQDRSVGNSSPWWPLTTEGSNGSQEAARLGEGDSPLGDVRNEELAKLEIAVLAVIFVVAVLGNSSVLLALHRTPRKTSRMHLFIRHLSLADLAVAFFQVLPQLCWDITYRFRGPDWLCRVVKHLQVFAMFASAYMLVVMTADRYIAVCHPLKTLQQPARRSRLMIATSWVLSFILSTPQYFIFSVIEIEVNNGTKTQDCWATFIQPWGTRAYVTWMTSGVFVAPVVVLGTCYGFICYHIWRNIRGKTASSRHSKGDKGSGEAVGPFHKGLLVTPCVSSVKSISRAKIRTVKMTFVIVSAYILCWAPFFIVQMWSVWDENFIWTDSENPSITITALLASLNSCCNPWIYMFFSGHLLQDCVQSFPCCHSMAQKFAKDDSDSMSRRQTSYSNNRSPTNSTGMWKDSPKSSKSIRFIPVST
T3 sequence (Q00788 whole entry): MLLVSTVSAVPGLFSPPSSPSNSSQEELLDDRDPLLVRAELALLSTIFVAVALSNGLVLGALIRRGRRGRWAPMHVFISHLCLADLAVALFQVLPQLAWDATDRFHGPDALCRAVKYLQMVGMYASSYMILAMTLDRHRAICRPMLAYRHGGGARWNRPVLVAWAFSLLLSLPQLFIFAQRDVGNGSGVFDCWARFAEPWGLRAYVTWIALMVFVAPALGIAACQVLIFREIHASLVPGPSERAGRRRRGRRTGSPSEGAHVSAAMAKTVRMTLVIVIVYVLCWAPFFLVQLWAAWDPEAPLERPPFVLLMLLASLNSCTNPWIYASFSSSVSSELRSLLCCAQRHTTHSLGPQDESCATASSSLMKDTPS
T6 sequence (P30518 whole entry): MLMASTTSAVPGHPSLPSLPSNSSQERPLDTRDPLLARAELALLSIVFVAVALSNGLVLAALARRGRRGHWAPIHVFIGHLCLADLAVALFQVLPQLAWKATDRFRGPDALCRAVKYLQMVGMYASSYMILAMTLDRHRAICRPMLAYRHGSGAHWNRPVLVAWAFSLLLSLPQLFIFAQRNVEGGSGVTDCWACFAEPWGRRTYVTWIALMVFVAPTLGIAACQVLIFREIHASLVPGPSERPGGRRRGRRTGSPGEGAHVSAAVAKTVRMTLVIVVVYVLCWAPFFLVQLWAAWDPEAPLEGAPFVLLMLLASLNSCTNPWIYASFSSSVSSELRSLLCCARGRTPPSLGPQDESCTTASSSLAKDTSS

SMILES | Ki (Oxytocin receptor [1]) | Ki (Oxytocin receptor [2]) | Ki (Vasopressin V2 receptor [3]) | Ki (Vasopressin V1a receptor [4]) | Ki (Vasopressin V1a receptor [5]) | Ki (Oxytocin receptor [6]) | Ki (Vasopressin V1a receptor [7]) | Ki (Vasopressin V2 receptor [8]) | Ki (Vasopressin V1a receptor [9]) | Ki (Vasopressin V2 receptor [10]) | Ki (Vasopressin V2 receptor [11])
CC(=O)N1CCC(Oc2ccc(C(=O)N3CCC(N4C(=O)OCc5ccccc54)CC3)cc2)CC1 | 24 nM | 69 nM | 35000 nM | 5.6 nM | 12000 nM |  |  |  |  |  | 
CC(=O)N1CCCC(COc2ccc(C(=O)N3CCC(N4C(=O)OCc5ccccc54)CC3)cc2)C1 (stereo not given) | 200 nM | 340 nM | 11000 nM | 24 nM | 38000 nM |  |  |  |  |  | 
CC(=O)NCCCOc1ccc(C(=O)N2CCC(N3C(=O)OCc4ccccc43)CC2)cc1 |  | 200 nM |  |  |  | 130 nM | 31 nM | 35000 nM | 36000 nM |  | 
CC(=O)NCCCOc1ccc(C(=O)N2CCC(N3C(=O)CCc4ccccc43)CC2)cc1 |  | 230 nM |  |  |  | 170 nM | 32 nM | > 30000 nM | 52000 nM | > 81000 nM | 
CC(=O)N1CCCCC1CCOc1ccc(C(=O)N2CCC(N3C(=O)OCc4ccccc43)CC2)cc1 (stereo not given) | 150 nM |  | 11000 nM | 15 nM | 22000 nM |  |  |  |  |  | 
COc1cc(OC2CCN(C(C)=O)CC2)ccc1C(=O)N1CCC(N2C(=O)OCc3ccccc32)CC1 | 4.6 nM |  | > 30000 nM | 3.7 nM | 3200 nM |  |  |  |  |  | 37000 nM
CC(=O)NCCCOc1ccc(C(=O)N2CCC(N3C(=O)NCc4ccccc43)CC2)cc1 |  | 2400 nM |  |  |  | 2100 nM | > 1000 nM | > 3000 nM | 62000 nM |  | 
